The results in this text go back to patent publication US9463188B2, “Osteopontin production inhibitor containing dictyopyrone derivative or dihydrodictyopyrone derivative as active ingredient” (TOHOKU UNIVERSITY, priority 2013, dated 2016).

For this test, the system named is OPN promoter in A549/OPNluc cells. Briefly: Influence of mevalonic acid on suppression of luciferase activity under control of OPN promoter. Format: cell-based, human. Here is the method:
In order to determine whether the OPN production inhibitory effect of a dictyopyrone derivative or a dihydrodictyopyrone derivative contained as an active ingredient in the OPN production inhibitor according to the present invention is based on the same mechanism of action as a well-known statin-based drug for treatment of hypercholesteremia, simvastatin or the compound 3 was added to a culture liquid containing A549/OPNluc cells to determine its effect on gene expression under control of OPN promoter and to observe whether or not the effect was maintained even in the presence of mevalonic acid. […]
The solution in each well was mixed with a vortex mixer, and then the 96-well plate was incubated in a CO2 incubator (at 37° C. and 5% CO2) for 48±4 hours. […] After 30 min, 90 min, and 120 min, absorbance values (450 nm) were measured using a microplate reader (Bio-Rad; Benchmark or Thermo Scientific; Varioskan Flash).
The absorbance values were input into an Excel file, and the absorbance values of all the samples of each test group were divided by the average absorbance value of Control to determine the ratio of the absorbance value of each sample to the absorbance value of Control (Ratio to Control). Absorbance value of each sample÷absorbance value of Control=Ratio to Control […]

As to `CCCCCCCCCCCC(=O)[C@H]1C(=O)O[C@@H](C)C[C@@H]1C` [Chemical formula 3], the “luciferase activity under control of OPN promoter after addition of MVA” value (compound 3 25 μM + MVA (100 μM or 1 mM)) is “not recovered”. Besides, the “luciferase activity under control of OPN promoter” value (compound 3 25 μM, no MVA, corrected by WST Ratio to Control) is “suppression of luciferase activity”.
